According to patent US20120095022A1, “DERIVATIVES OF 10-AMINO-1,2,3,4-TETRAHYDROPYRIDO[2,1-A]ISOINDOL-6(10BH)-ONES, METHOD FOR PREPARATION THEREOF AND THERAPEUTIC USES THEREOF” (UNIVERSITE D'ORLEANS, priority 2009, published 2012):

What was measured:
Caco (colon) = experiment: Cytotoxicity on human cells, automated nuclei counting: Caco; type: cell-based; details: exposed 24 h to 48 h, 0.1 to 25 μM
Method: (§1) Cytotoxicity: This method is based on an automated imaging analysis. 4.10^3 cells were cultivated on 96-well plates and left for 24 hours so as to bind, to spread and proliferate.
(§2) All the cell lines were cultivated in a DMEM or RPMI (Invitrogen) medium. All these media were completed with antibiotics (penicillin-streptomycin) (Lonza) and 10% by volume of fetal calf serum (Invitrogen). The cells were cultivated at 37° C. with 5% of CO2. The treatments with the molecules to be tested were carried out with increasing concentrations. The control experiments were also carried out by using suitable dilutions of DMSO (maximum 1% DMSO).

NCI (lung) = experiment: Cytotoxicity on human cells, automated nuclei counting: NCI; type: cell-based; details: exposed 24 h to 48 h, 0.1 to 25 μM
Method: as §1, §2

HCT 116 (colon) = experiment: Cytotoxicity on human cells, automated nuclei counting: HCT 116; type: cell-based; details: HCT 116 cells, exposed 24 h to 48 h, 0.1 to 25 μM
Method: as §1, §2

Huh7 (liver) = experiment: Cytotoxicity on human cells, automated nuclei counting: Huh7; type: cell-based; details: Huh-7, exposed 24 h to 48 h, 0.1 to 25 μM
Method: as §1, §2

PC3 (prostate) = experiment: Cytotoxicity on human cells, automated nuclei counting: PC3; type: cell-based; details: PC-3, exposed 24 h to 48 h, 0.1 to 25 μM
Method: as §1, §2

CDK5/D25 = target: T1, CDK5/D25 (Homo sapiens, UniProt Q00535); experiment: CDK5 kinase inhibition (33P-ATP, histone H1); type: biochemical; details: buffer C, 30° C., 15 μM ATP, read-out: IC50 μM Kinases CDK5
T1 construct: made in house
Method: The protein kinase inhibition activities of the compounds of the invention are tested according to the following general procedure:
Buffer C: 60 mM β-glycerophosphate, 15 mM p-nitrophenyl-phosphate, 25 mM Mops (pH 7.2), 5 mM EGTA, 15 mM mgCl2, 1 mM DTT, 1 mM sodium vanadate and 1 mM phenylphosphate.
The controls were made with suitable dilutions of DMSO.
ATP (3.000 Ci/mmol.; 10 mCi/mL) in a final volume of 30 μL. After 30 mins of incubation at 30° C., 25 μL of supernatant aliquots were deposited on phosphocellulose Whatman P81 paper pieces of 2.5×3 cm, and after 20 seconds, the filters were washed five times (for at least 5 minutes each time) in a solution of 10 mL of phosphoric acid/1 litre of water. The wet filters were counted in the presence of 1 mL of scintillation fluid ACS (Amersham).

fibroblast = experiment: Cytotoxicity on human cells, automated nuclei counting: fibroblast; type: cell-based; details: exposed 24 h to 48 h, 0.1 to 25 μM
Method: as §1, §2

MDA-MB 231 (breast) = experiment: Cytotoxicity on human cells, automated nuclei counting: MDA-MB 231; type: cell-based; details: MDA-MB 231 cells, exposed 24 h to 48 h, 0.1 to 25 μM
Method: as §1, §2

T1 sequence (Q00535 whole entry): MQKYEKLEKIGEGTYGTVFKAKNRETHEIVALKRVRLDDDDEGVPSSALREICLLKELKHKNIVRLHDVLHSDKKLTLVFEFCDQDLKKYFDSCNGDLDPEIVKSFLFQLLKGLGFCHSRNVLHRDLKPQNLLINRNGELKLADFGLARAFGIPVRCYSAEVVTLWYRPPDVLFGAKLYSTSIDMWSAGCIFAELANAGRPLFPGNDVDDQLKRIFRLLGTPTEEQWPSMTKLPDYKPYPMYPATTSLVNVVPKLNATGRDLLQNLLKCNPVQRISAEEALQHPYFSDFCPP
T1 sequence (Q15078 99-307 partner limits assumed): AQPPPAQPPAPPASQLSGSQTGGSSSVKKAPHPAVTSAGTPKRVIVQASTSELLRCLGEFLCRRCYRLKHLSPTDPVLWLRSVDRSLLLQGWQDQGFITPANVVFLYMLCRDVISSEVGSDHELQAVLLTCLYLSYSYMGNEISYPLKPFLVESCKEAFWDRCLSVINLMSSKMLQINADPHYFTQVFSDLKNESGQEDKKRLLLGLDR

| SMILES | IC50 (Caco (colon)) [µM] | IC50 (NCI (lung)) [µM] | IC50 (HCT 116 (colon)) [µM] | IC50 (Huh7 (liver)) [µM] | IC50 (PC3 (prostate)) [µM] | IC50 (CDK5/D25) [µM] | IC50 (fibroblast) [µM] | melting point [°C] | IC50 (MDA-MB 231 (breast)) [µM] |
| --- | --- | --- | --- | --- | --- | --- | --- | --- | --- |
| O=C1CCN2C(=O)c3cccc(NC(=O)Nc4ccccn4)c3C2C1 (stereo not drawn) [Compound 97, 1-(2,6-Dioxo-1,2,3,4,6,10b-hexahydropyrido[2,1-a]isoindol-10-yl)-3-(pyridin-2-yl)urea] | 7 | 2 | 2 | 3 | 5 | 3.6 | 6 | 254 | 3 |
| O=C1c2cccc(-n3c(=O)[nH]c4ncccc4c3=O)c2C2CCCCN12 (stereo not drawn) [Compound 117, 3-(6-Oxo-1,2,3,4,6,10b-hexahydro-pyrido[2,1-a]isoindol-10-yl)-1H-pyrido[2,3-d]pyrimidine-2,4-dione] | – | – | – | – | – | – | – | > 290 | – |
| O=C(Nc1ccccn1)Nc1cccc2c1C1CC3(CCN1C2=O)OCCO3 (stereo not drawn) [Compound 28, 1-(6′-Oxo-3′,4′,6′,10b′-tetrahydro-1′H-spiro[[1,3]dioxolane-2,2′-pyrido[2,1-a]isoindole]-10′-yl)-3-(pyridin-2-yl)urea] | 0.6 | 4 | 0.6 | 1 | 1.5 | 11 | 3 | – | 1 |
| COc1cc(NC(=O)Nc2cccc3c2C2CC(=O)CCN2C3=O)nc2ccccc12 (stereo not drawn) [Compound 102, 1-(2,6-dioxo-1,2,3,4,6,10b-hexahydropyrido[2,1-a]isoindol-10-yl)-3-(4-methoxyquinolin-2-yl)urea] | – | – | – | – | – | – | – | 223 to 225 | – |
| Cc1cccnc1NC(=O)Nc1cccc2c1C1CC(O)CCN1C2=O (stereo not drawn) [Compound 107, 1-(2-Hydroxy-6-oxo-1,2,3,4,6,10b-hexahydropyrido[2,1-a]isoindol-10-yl)-3-(3-methylpyridin-2-yl)urea] | 12 | 7 | 1.5 | 5 | 5 | 0.63 | 6 | 204 to 206 | 8 |
| O=C1c2cccc(NC(=S)Nc3ncccc3Br)c2C2CCCCN12 (stereo not drawn) [Compound 72, 1-(3-bromopyridin-2-yl)-3-(6-oxo-1,2,3,4,6,10b-hexahydropyrido[2,1-a]isoindol-10-yl)thiourea] | – | – | – | – | – | – | – | 180 | – |
| O=C(Nc1cnccn1)Nc1cccc2c1C1CCCCN1C2=O (stereo not drawn) [Compound 38, 1-(6-Oxo-1,2,3,4,6,10b-hexahydropyrido[2,1-a]isoindol-10-yl)-3-(pyrazin-2-yl)urea] | 1 | 0.8 | 0.1 | 0.2 | 0.3 | – | 0.8 | 215 | 0.2 |
| O=C(Nc1cnccn1)Nc1cccc2c1C1CC3(CCN1C2=O)OCCO3 (stereo not drawn) [Compound 29, 1-(6′-Oxo-3′,4′,6′,10b′-tetrahydro-1′H-spiro[[1,3]dioxolane-2,2′-pyrido[2,1-a]isoindole]-10′-yl)-3-(pyrazin-2-yl)urea] | 5 | 8 | 1.5 | 3 | 5 | 7.1 | 10 | – | 3 |
| O=C1CCN2C(=O)c3cccc(-n4c(=O)[nH]c5cnccc5c4=O)c3C2C1 (stereo not drawn) [Compound 99, 10-(2,4-dioxo-1,2-dihydropyrido[3,4-d]pyrimidin-3(4H)-yl)-1,3,4,10b-tetrahydropyrido[2,1-a]isoindole-2,6-dione] | – | – | – | – | – | – | – | 230 | – |
| O=C(NCc1ccccc1)Nc1cccc2c1C1CCCCN1C2=O (stereo not drawn) [Compound 92, N-Benzyl-N′-(6-oxo-1,2,3,4,6,10b-hexahydropyrido[2,1-a]isoindol-10-yl)urea] | – | – | – | – | – | – | – | 183 | – |
| O=C(Nc1cc[nH]n1)Nc1cccc2c1C1CC3(CCN1C2=O)SCCS3 (stereo not drawn) [Compound 77, 1-(6′-Oxo-3′,4′,6′,10b′-tetrahydro-1′H-spiro[[1,3]dithiolane-2,2′-pyrido[2,1-a]isoindole]-10′-yl)-3-(1H-pyrazol-3-yl)urea] | – | – | – | – | – | – | – | 184 | – |
| Cc1cccnc1NC(=O)Nc1cccc2c1C1CC(=O)CCN1C2=O (stereo not drawn) [Compound 100, 1-(2,6-dioxo-1,2,3,4,6,10b-hexahydropyrido[2,1-a]isoindol-10-yl)-3-(3-methylpyridin-2-yl)urea] | – | – | – | – | – | – | – | > 260 | – |
| Cc1ccc(NC(=S)Nc2cccc3c2C2CCCCN2C3=O)nc1 (stereo not drawn) [Compound 73, 1-(5-methylpyridin-2-yl)-3-(6-oxo-1,2,3,4,6,10b-hexahydropyrido[2,1-a]isoindol-10-yl)thiourea] | – | – | – | – | – | – | – | 232 | – |
| Cc1cccc(NC(=O)Nc2cccc3c2C2CC(O)CCN2C3=O)n1 (stereo not drawn) [Compound 108, 1-(2-Hydroxy-6-oxo-1,2,3,4,6,10b-hexahydropyrido[2,1-a]isoindol-10-yl)-3-(6-methylpyridin-2-yl)urea] | 15 | 10 | 3 | 3 | 2 | 1 | 10 | 240 to 242 | 8 |
| O=C1CCN2C(=O)c3cccc(NC(=O)Nc4cnccn4)c3C2C1 (stereo not drawn) [Compound 98, 1-(2,6-Dioxo-1,2,3,4,6,10b-hexahydropyrido[2,1-a]isoindol-10-yl)-3-(pyrazin-2-yl)urea] | 25 | > 25 | 20 | > 25 | > 25 | > 10 | > 25 | – | > 25 |
| Cc1cccc(NC(=O)Nc2cccc3c2C2CC(=O)CCN2C3=O)n1 (stereo not drawn) [Compound 101, 1-(2,6-dioxo-1,2,3,4,6,10b-hexahydropyrido[2,1-a]isoindol-10-yl)-3-(6-methyl-pyridin-2-yl)urea] | – | – | – | – | – | – | – | 226 to 228 | – |
| O=C(Nc1cccc2c1C1CCCCN1C2=O)NN1CCCCC1 (stereo not drawn) [Compound 85, N-(6-Oxo-1,2,3,4,6,10b-hexahydropyrido[2,1-a]isoindol-10-yl)-N′-(piperidin-1-yl)urea] | – | – | – | – | – | – | – | 166 | – |
| O=C(Nc1ccccc1)Nc1cccc2c1C1CCCCN1C2=O (stereo not drawn) [Compound 87, N-(6-Oxo-1,2,3,4,6,10b-hexahydropyrido[2,1-a]isoindol-10-yl)-N′-phenylurea] | – | – | – | – | – | – | – | 172 | – |
| Nc1ccn(C(=O)Nc2cccc3c2C2CCCCN2C3=O)n1 (stereo not drawn) [Compound 78, 3-Amino-N-(6-oxo-1,2,3,4,6,10b-hexahydropyrido[2,1-a]isoindol-10-yl)-1H-pyrazole-1-carboxamide] | – | – | – | – | – | – | – | 166 | – |
| O=C(Nc1cccc(Br)n1)Nc1cccc2c1C1CC3(CCN1C2=O)SCCS3 (stereo not drawn) [Compound 21, 1-(6-Bromopyridin-2-yl)-3-(6′-oxo-3′,4′,6′,10b′-tetrahydro-1′H-spiro[[1,3]dithiolane-2,2′-pyrido[2,1-a]isoindole]-10′-yl)urea] | 3 | 6 | 2.5 | 2 | 4 | > 10 | 9 | 170 | 4 |
| O=C(Nc1ccccn1)Nc1cccc2c1C1CCCCN1C2=O (stereo not drawn) [Compound 30, 1-(6-oxo-1,2,3,4,6,10b-hexahydropyrido[2,1-a]isoindol-10-yl)-3-(pyridin-2-yl)urea] | 0.1 | 0.2 | – | 0.03 | 0.1 | – | 0.2 | – | 0.05 |
| O=C(Nc1ccccn1)Nc1cccc2c1C1C[C@@H](O)CCN1C2=O (stereo partly drawn) [Compound 104, 1-((2S)-2-Hydroxy-6-oxo-1,2,3,4,6,10b-hexahydropyrido[2,1-a]iso-indol-10-yl)-3-(pyridin-2-yl)urea] | 7 | 3 | 1 | 2 | 3 | 2.1 | 2 | 220 | 3 |
| O=C1c2cccc(-n3c(=O)[nH]c4cnccc4c3=O)c2C2CC3(CCN12)OCCO3 (stereo not drawn) [Compound 113, 3-(6′-oxo-3′,4′,6′,10b′-tetrahydro-1′H-spiro[[1,3]dioxolane-2,2′-pyrido[2,1-a]isoindole]-10′-yl)pyrido[3,4-d]pyrimidine-2,4(1H,3H)-dione] | – | – | – | – | – | – | – | 204 | – |
